{"source": "paper PMC8965496", "about": "“Combating multidrug resistance and metastasis of breast cancer by endoplasmic reticulum stress and cell-nucleus penetration enhanced immunochemotherapy” (Theranostics, 2022)", "tested_on": "MCF-7/ADR drug resistant cell line", "assay": "IC50 of DOX against drug-resistant cell line", "assay_type": "cell-based", "conditions": "ratio MCF-7/ADR to MCF-7"}
{"smiles": "COc1cccc2c1C(=O)c1c(O)c3c(c(O)c1C2=O)C[C@@](O)(C(=O)CO)C[C@@H]3O[C@H]1C[C@H](N)[C@H](O)[C@H](C)O1", "note": "[DOX, doxorubicin]", "values": [{"measurement": "IC50 in MCF-7/ADR cells relative to MCF-7 cells", "result": 108.07, "unit": "fold"}]}
